Melting point data for 89 molecules are collected here from a melting point compilation (Tetko et al.; mined from patent text by program, amines drawn as free bases though some values may be those of a salt).

A word on the melting point: it is the temperature of the solid-liquid transition.

Consider `CC(C)COC(=O)N[C@H](CCCNC(=O)OCc1ccccc1)C(=O)NCc1ccc(CC(N)=O)cc1`, for which the melting point worked out at 145 °C.
As for `COc1ccc(N2CCN(C(=O)CC3C=Cc4ccccc43)CC2)cc1` (centres undefined), the figure is 123 to 125 °C; as for `CCCNC(=O)CC1(C)Cc2c(C)c(N3CCN(c4ccc(OC)cc4)CC3)c(C)c(C)c2O1` (centres undefined), 135 to 138 °C.
To `N#Cc1ccc(Oc2ccc3ccc(Oc4ccc(C#N)c(C#N)c4)cc3c2)cc1C#N` belongs 201 to 204 °C; to `CCNC(=O)n1ccc(O)cc1=O`, 272 °C; to `O=c1oc(-c2ccccc2)cc(O)c1C(CC1CC1)SC1CCCCC1` (centres undefined), 69 to 71 °C.
`CCN(CC)S(=O)(=O)c1cc2c(ccc3nc(N)[nH]c(=O)c32)cc1Br`: the melting point was > 250 °C.
To `CCCCCCCCCc1c(C(F)(F)F)noc1NS(=O)(=O)c1ccccc1` belongs 102 °C.
To `NCCc1cc(Cl)c(NC(=O)CN2CCN(CCCCC(c3ccc(F)cc3)c3ccc(F)cc3)CC2C(N)=O)c(Cl)c1` (centres undefined) belongs 161 °C.
To `COc1cc2nc(N3CCN(c4ccc(Cl)ccc4=O)CC3)nc(N)c2cc1OC` belongs 202 to 204 °C; to `CC(=O)Nc1ccc(OCC2CO2)c(C(=O)Nc2cccc3[nH]ccc23)c1` (centres undefined), 230 °C; to `O=Cc1scc2c3ccccc3c3ccccc3c12`, 198 to 199 °C.
`CCCCCCCCCCCCCCCOc1ccc(C(C)=O)o1` gave a melting point of 67 to 68 °C.
As for `CCn1c2cc(C=O)ccc2c2c3ccccc3ccc21`, the figure is 148 to 149 °C; as for `Cc1ccc(C=COc2cccc3c2C(=O)c2ccccc2C3=O)cc1`, 88 to 90 °C; as for `O=C(N[C@H]1CN2CCC1CC2)C(Cc1ccccc1)c1ccccc1` (some centres undefined), 142 °C.
As for `CCc1c(Sc2cc(C)cc(C)c2)n(CC2=CCC(CO)C2)c(=O)[nH]c1=O` (centres undefined), the figure is 57 to 60 °C; as for `Cc1ccccc1CC(=O)Nc1ccc(C(=O)O)c(Cl)c1`, 214 to 218 °C.
To `CN(C)[C@H]1CCC[C@H]1C(=O)O` (relative stereo) belongs 82 to 84 °C; to `COc1ccc(Cn2c(O)nc3c(N)nc4ccccc4c32)cc1`, > 260 °C.
The molecule `COc1cc2c(cc1OC)C(C(CO)CO)=NCC2` returned a melting point of 129 °C.
As for `CCN1CCCC1CNS(=O)(=O)c1ccc(Nc2ccnc3cc(C(F)(F)F)ccc23)cc1` (centres undefined), the figure is 194 to 195 °C; as for `Cc1cccnc1-n1ccnc1S(=O)Cc1ccccc1N` (centres undefined), 112 to 114 °C.
As for `C=CC(=O)NCNC(=O)CCS(=O)(=O)Cl`, the figure is 192 °C; as for `CC1CN(c2c(F)cc3c(=O)c(C(=O)O)cn(CCF)c3c2F)CC1CN` (centres undefined), 228 to 232 °C; as for `COc1cccc(Cc2n[nH]c3c2c(=O)n(-c2ccccc2)c2ncccc32)c1`, 234 to 236 °C.
Take `Cc1cc(C)c(/C=C2\C(=O)N(C(=O)CNC(=O)OCc3ccccc3)c3ccccc32)[nH]1`: the melting point was in the range of 193 to 196 °C.
To `CS(=O)(=O)Nc1ccc(NCC(=O)N2CCC(Cc3ccc(Cl)cc3)CC2)cc1` belongs 70 °C; to `C[C@H](CC(=O)c1ccc(C#N)cc1)C(=O)N1CCC(OCC(=O)OC(C)(C)C)CC1`, 142 °C; to `Cc1oc(-c2ccc(Cl)cc2)nc1COc1cccc(/C=C/C(C)n2oc(=O)[nH]c2=O)c1` (centres undefined), 172 to 174 °C.
To `Nc1cc(Oc2cccc(O)c2)ccc1[N+](=O)[O-]` belongs 137 °C.
To `CCOCCc1ccc(OCCNc2ncnc(COC)c2Cl)c(C)c1` belongs 39 to 41 °C; to `COc1cc(C)c2c(=O)c3c(OC)cccc3oc2c1OC`, 158 °C; to `CC(C)(C)OC(=O)Nc1ccccc1NC(=O)c1ccc(CBr)cc1`, 282 to 283 °C.
Turning to `N#CSCC(=O)N1CCCC1`, the melting point lay in the range of 95 to 96 °C.
To `CC(=O)Nc1ccc(OCC(=O)NC2CCN(Cc3ccc(Cl)c(Cl)c3)CC2)cc1` belongs 177 to 178 °C; to `CCC(CC)c1ccc(Cl)c2nc3n(c12)CC(=O)N3c1cnc(N(C)C)cc1C`, 222 to 224 °C.
As for `CON=C(c1ccccc1)c1ccc2c(c1)C(C)(C)CCN2CCOc1ccc(CC(OCC(F)(F)F)C(=O)O)cc1` (centres undefined), the figure is 62 to 64 °C.
To `N#Cc1cccc(C2=Nc3ccc(C#CC4=CCCCC4)cc3NC(=O)C2)c1` belongs 228 °C.
`CN1CCC(OC(=O)COC(=O)c2ccccc2Nc2ccnc3c(C(F)(F)F)cccc23)(c2ccccc2)CC1` displayed a melting point of 144 to 145 °C.
To `CC(C)NC(=O)C(O)C(Oc1ccccc1)c1ccc(Cl)cc1` (centres undefined) belongs 175 to 177 °C; to `Cc1ccc(NC(=O)C(N)c2ccc3c(c2)C(C)(C)CCC3(C)C)cc1` (centres undefined), 161 to 163 °C.
To `CC(S)C(=O)NCc1noc(C(C)c2ccc(-c3ccccc3)c(F)c2)n1` (centres undefined) belongs 94 to 95 °C; to `CCOc1ccc2nc(CCl)cn2c1`, 95 to 96 °C; to `COc1ccc(OC)c(Cc2nc3ccc(C)cc3c(=O)[nH]2)c1`, 188 to 189 °C.
As for `Cn1c(C(F)(F)F)cc(=O)n(-c2cc(OCSc3ccccc3)c(Cl)cc2F)c1=O`, the figure is 91 to 94 °C; as for `COC(=O)C(c1ccccc1)N1CCN(c2ccc([N+](=O)[O-])cc2)CC1` (centres undefined), 92 °C; as for `COC(=O)c1cccc(C=CC(=O)c2cc(OC)ccc2OC)c1`, 108 to 110 °C.
In turn, `CCOc1nn(Cc2ccc(OCc3nc(-c4ccccc4)oc3C)c(OC)c2)cc1CCC(=O)O` showed a melting point of 122 to 123 °C.
To `CCOC(=O)/C(=N\OC1CCSC1)c1csc(N)n1` (centres undefined) belongs 151 to 152 °C; to `O=[N+]([O-])c1ccccc1NCc1cc(Cl)cc(Cl)c1`, 138 to 140 °C; to `CNC(=C[N+](=O)[O-])NCCCCc1nc[nH]c1Br`, 145 to 148 °C.
`Cc1ccc(S(=O)(=O)OC2CC3(C)C=CC(C)(C2)O3)cc1` (centres undefined) had a melting point of 75 to 77 °C.
To `O=C(O)c1ccc(S(F)(F)(F)(F)F)cc1[N+](=O)[O-]` belongs 165 to 167 °C; to `CC(=O)Nc1ccc2[nH]c(C=CC(=O)O)cc2c1`, 238 to 239 °C; to `COc1ccccc1-c1c(N)c2ccc(Cl)cc2[nH]c1=O`, 284 to 286 °C.
The molecule `CC(=O)Nc1cc(-c2ccncc2)cc2nc(-c3ccc(C)o3)nn12` registered a melting point of 257 to 259 °C.
Regarding `CCCCCCCCCCCCC#CCC(COC(C)=O)(COC(C)=O)NC(C)=O`, the melting point lay in the range of 95.5 to 96.5 °C.
As for `O=C(CCl)c1ccc(Oc2ccc(C(=O)CCl)cc2)cc1`, the figure is 129 to 130 °C; as for `Cn1c(-c2ccc(-n3cnc4ccccc43)cc2)cnc1[C@H](Cc1ccccn1)N(C=O)c1cc2ccccc2[nH]1`, 233 to 237 °C; as for `N#CCC(=O)Nc1ccc(-c2ncn(-c3ccc(OC(F)(F)F)cc3)n2)cc1`, 250 to 252 °C.
As for `Cc1ccc(Oc2ccc(C(=O)c3ccc(Oc4ccc(C)c(C)c4)cc3)cc2)cc1C`, the figure is 68 to 69 °C; as for `Cc1cc(C(O)(C(F)(F)F)C(F)(F)F)cc(C)c1OCC(=O)O`, 118 to 120 °C.
As for `CC(C)(C)OC(=O)[C@H]1C[C@@H](C(=O)OCc2ccccc2)[C@@H](c2ccccc2)N1` (racemic), the figure is 70 °C; as for `O=C1CCC(N2C(=O)c3cccc(CNC(=O)c4ccccc4)c3C2=O)C(=O)N1` (centres undefined), 227 to 229 °C.
`S=C1CNCCN1Cc1ccccc1` registered a melting point of 70 to 73 °C.
`c1ccc(-c2cn3cnnc3cn2)cc1`: the melting point was in the range of 231 to 233 °C.
As for `CN1C(=O)NC(c2ccccc2)c2cc3c(cc21)OCO3` (centres undefined), the figure is 228 to 230 °C.
`CC(=NNC(=S)N1CCCCCC1)c1ccc2ccccc2n1` registered a melting point of 129 to 131 °C.
To `CC(C)(O)C(=O)c1ccc(C(O)c2ccc(C(=O)C(C)(C)O)cc2)cc1` belongs 130 °C; to `COc1cc2c(cc1OC)C(=O)NN(CCCO)C2`, 178 °C.
To `COc1ccc(C2(C#Cc3cccc(-c4nc(C)no4)c3)CCCC(=O)C2)cc1OC1CCCC1` (centres undefined) belongs 122 to 123 °C; to `Cc1cc(=O)n2c3c(cc(C(OCc4ccccc4)(C(F)(F)F)C(F)(F)F)cc13)CC2`, 207 to 208 °C.
`COc1ccc(C(CCCCCCC(=O)O)=NOCc2ccc(OCc3nc(-c4ccccc4)oc3C)cc2)cc1` returned a melting point of 69 to 70 °C.
As for `CC(C)c1cccc(C(C)C)c1NC(=O)CN`, the figure is 88 to 95 °C; as for `Nc1cccc(S(=O)(=O)NCc2ccncc2)c1`, 139 °C.
As for `CC(CN1C(=O)c2ccccc2C1=O)c1c[nH]c2ccc(C#N)cc12` (centres undefined), the figure is 218 to 220 °C; as for `CC(C)(C)OC(=O)n1ccc2cnccc21`, 65 °C.
To `CCOC(=O)N(N=c1[nH]c(SC)nc2ccc(C)cc12)c1ccccc1` belongs 230 °C.
`CCN(CC)C(=O)C(C)Oc1nc(-c2ccccc2)cc2ccccc12` (centres undefined) registered a melting point of 117 °C.
In turn, `CCCCc1oc2ccccc2c1C(=O)c1cc(Cl)c(O)c(Cl)c1` displayed a melting point of 110 to 114 °C.
In the case of `CCOC(=O)N1CCCC(Nc2nc3ccccc3[nH]2)CC1` (centres undefined), the melting point was 175 °C.
As for `ClCc1c(-c2ccccc2)c(-c2ccccc2)nn1Cc1ccccc1`, the figure is 99 °C; as for `CCOC(=O)c1cnc2ccc(F)cc2c1O`, > 260 °C.
As for `COC(=O)C1(CCCN2CCN(c3ccc(O)cc3)CC2)Sc2cc(OC)ccc2CCC1O` (centres undefined), the figure is 120 to 124 °C; as for `CC(C)NC(=O)Oc1ccccc1`, 81 to 82 °C; as for `O=C1C(c2ccc(O)cc2)=C(Br)c2c(O)cc(O)cc21`, 160 to 162 °C.
To `Cn1c(C(F)(F)F)cc(=O)n(-c2ccc3snc(C(C)(C)C(=O)NS(C)(=O)=O)c3c2)c1=O` belongs 264 to 265 °C; to `OC(CN1CCNC1=S)c1cccc(F)c1` (centres undefined), 116 °C.
